Key:
[1] = test system: MCF-7 C20 cells; assay: Propidium iodide exclusion cell death assay, Nod1-deficient MCF-7 C20 cells; format: cell-based, human; conditions: C20 cells, charcoal-treated serum, γTriDAP/CHX (FIG. 12A, middle panel)
Method: Cell viability assays. […] Subsequently, cells were harvested, washed twice in FACS buffer (PBS containing 1% FCS and 0.1% NaN3) and resuspended in propidium iodide (PI)—containing FACS buffer (4 ug/ml). The extent of cell death was analyzed with a FACSCalibur flow cytometer (Becton Dickinson, Mountain View, Calif.). DAPI staining: MCF-7 cells were plated in chamber slides, and stimulated for 2 days. Cells were washed with PBS and apoptotic nuclei were stained with 1 μg/ml DAPI (Sigma Chemical Co., St. Louis, Mo.). Cells were fixed in 4% paraformaldehyde and examined by fluorescence microscopy.
(§1) To further investigate the role of Nod1 in apoptosis, a variety of cell types were incubated with the Nod1 ligand, […] (γTriDAP), which specifically activates Nod1. The cell types tested included the parental MCF-7 cell line, the Nod1-deficient MCF-7C20 clone, and a cell line engineered to contain an additional human Nod1 allele (MCF-7Nod1) so that Nod1 was over-expressed. To determine whether the resistance of C20 cells to γTriDAP-induced apoptosis resulted from the absence of Nod1, human Nod1 was stably expressed in MCF-7 C20 cells to produce Nod1-sufficient C20 cells (C20/Nod1). As another control, the parental MCF-7 cell line was transfected with an empty retroviral vector to generate MCF-7 Blasto cells. Cells were treated with γTriDAP in the presence or absence of cycloheximide (CHX) and cell death was then determined by propidium iodide staining and flow cytometry.

[2] = test system: MCF-7 C20/Nod1; assay: Human xenograft in SCID mice, MCF-7 C20/Nod1 cells; format: in vivo; conditions: mice that received MCF-7 C20/Nod1, estrogen pellets present (FIG. 11B)
Method: (§2) Human xenografts in nude mice. MCF-7 Blasto, MCF-7 C20 and MCF-7 C20/Nod1 cells were trypsinized, washed once with PBS and resuspended to a concentration of 1.5×10^7/ml. Two hundred microliters of each suspension were inoculated subcutaneously into the flank of athymic SCID/SCID or SCID/Nod (non-obese diabetic) female mice. Tumor size was assessed once a week. Tumor volume was calculated.
(§3) Nod1 controls tumor formation. Nod1-dependent apoptotic pathways might be important in a number of biological processes, including tumor cell growth regulation and a failure of malignant cells to undergo cell death, leading to tumorigenesis. A xenograft model of tumor growth in SCID mice was used to examine the role that Nod1 plays in tumor growth and tumor rejection. Populations of MCF-7Blasto, MCF-7C20 and MCF-7C20Nod1 cells (each totaling about 3×10^6 cells), were separately injected subcutaneously into the flanks of female mice to induce tumor growth in SCID/SCID or SCID/Nod1 mice. Animals were scored for tumor formation once a week post-injection for up to 8 weeks.
(§4) In most studies, tumor formation by MCF-7 cells requires supplementation of estrogens for tumorigenesis in nude mice, even when cells are inoculated at high concentration. To further examine the role of estrogen in tumorigenesis, all three cell lines were injected into mice along with estrogen pellets (FIG. 11B). […]

[3] = test system: MCF-7 C20 cells; assay: Human xenograft in SCID mice, MCF-7 C20 cells; format: in vivo; conditions: mice injected with MCF-7 C20 cells, estrogen pellets present (FIG. 11B)
Method: as §2, §3, §4

[4] = test system: MCF-7 Blasto cells; assay: Human xenograft in SCID mice, MCF-7 Blasto cells; format: in vivo; conditions: mice injected with MCF-7 Blasto cells, estrogen pellets present (FIG. 11B)
Method: as §2, §3, §4

[5] = test system: MCF-7 C20/Nod1 cells; assay: Propidium iodide exclusion apoptosis assay, MCF-7 C20/Nod1 cells; format: cell-based, human; conditions: C20/Nod1 and Blasto cells, charcoal-treated serum, increasing estrogen (FIG. 12A)
Method: Cell viability assays. Propidium iodide exclusion assay: Cells were stimulated as indicated for 2 days. Subsequently, cells were harvested, washed twice in FACS buffer (PBS containing 1% FCS and 0.1% NaN3) and resuspended in propidium iodide (PI)—containing FACS buffer (4 ug/ml). The extent of cell death was analyzed with a FACSCalibur flow cytometer (Becton Dickinson, Mountain View, Calif.). DAPI staining: MCF-7 cells were plated in chamber slides, and stimulated for 2 days. Cells were washed with PBS and apoptotic nuclei were stained with 1 μg/ml DAPI (Sigma Chemical Co., St. Louis, Mo.). Cells were fixed in 4% paraformaldehyde and examined by fluorescence microscopy.
as §1
To determine whether the presence of estrogens modulates Nod1-induced apoptotic pathway, cells were cultured in medium containing charcoal-treated serum.

[6] = test system: MCF-7 C20 cells; assay: 3H-thymidine proliferation assay, MCF-7 C20 cells; format: cell-based, human; conditions: cells grown in the absence of estrogen, estrogen added; 3H-thymidine (FIG. 11D)
Method: Retroviral transfections. The various genes used in this study were cloned into pMSCV-Blasto, pBabe-Puro or pBabe-Neo retroviral vectors. MCF-7 cells were stably transfected using available procedures. Briefly, amphotropic 293 cells were transfected with retroviral vectors encoding selected Nod1, Nod2 and other proteins. Twenty-four hours post-transfection, cells were incubated at 32° C. overnight to produce viral particles. Target cells were infected the next day with virus-containing 293 cell supernatants containing recombinant retroviral particles. Cells were selected with 10 μg/ml blasticidin S (Calbiochem EMD Biosciences Inc., San Diego, Calif.), 500 μg/ml […] (Invitrogen, Carlsbad, Calif.) or 5 μg/ml puromycin (Calbiochem). The expression of all constructs was confirmed by Western blot analysis. To determine the effects of 17β-estradiol (Calbiochem), cells were cultured in phenol red-free DMEM supplemented with […]. Cells were seeded in 96 well plates with various concentration of 17β-estradiol (E2) for 24 h and pulsed with ^3H-thymidine (1 μCi/well, MP Biomedicals, Irvine, Calif.). Cells were harvested on glass fiber filters and radioactivity measured by liquid scintillation. […]

**Q.** What does the source list for 17β-estradiol [estrogen]?
**A.** effect of estrogen upon apoptosis [1]: little or no effect; tumor growth [2]: did not grow tumors; tumor growth [3]: grew even larger; tumor growth [4]: tumors grew; effect of estrogen upon γTriDAP-induced apoptosis [5]: apoptosis increased in a dose-dependent manner; proliferative response [6]: strong proliferative response
